Test results taken from publication PMC5566973 (Frontiers in Pharmacology, 2017).

How the values were obtained:
Test in all cases: in vitro
MDR1 = details: human, Caco-2, ER, Caco-2, 2 μM, + Verapamil 0.1 mM (MDR1)
Procedure: (§1) Caco-2, MDCK and MDCK-MRP2 cells were donated by Prof. Yan Xie and Yueming Ma from Shanghai University of Traditional Chinese Medicine. The cells were grown in culture dishes (Corning® Costar, Cambridge, MA, USA) using DMEM supplemented with 10% FBS, 1% NEAA and 1% penicillin-streptomycin solution. The cells were cultured in 5% CO2 and […] with 90% relative humidity at 37°C. The medium was replaced every other day during incubation. The cells were passaged every 3–4 days between 70 and 80% confluence at a 1:5 split ratio using 0.25% trypsin-EDTA. For the transport experiments, the cells from passages between 30 and 45 were seeded at 1 × 10^5 cells/cm^2 onto permeable polycarbonate inserts (0.45 μm pore size, seeding surface of 0.6 cm^2, Millipore, MA, USA) in 24-well plastic plates. The media in the culture plates were changed every other day for the first week after seeding and were replaced daily afterward. […] The cells were used for the transport experiments 21–28 (Caco-2) or 5–7 (MDCK and MDCK-MRP2) days after seeding, and only monolayers with a TEER-value above 420 Ω cm^2 were used during the studies.
(§2) The apical (AP) and basolateral (BL) sides are typical of polarized Caco-2, MDCK and MDCK-MRP2 epithelial cells. Before the experiments, the polarized cell monolayers were washed twice with warm HBSS solution and subsequently preincubated (37°C, 30 min). Afterward, HBSS solution on both sides of the cell monolayers was removed using a mini desktop vacuum pump. […] The final DMSO concentration in the HBSS or drug mixture was below 0.5%. The monolayers were incubated at 37°C, and 100 μL samples were taken at 30, 60, 90, and 120 min from the acceptor compartment and immediately replaced with the same volume of prewarmed fresh blank HBSS. TEER measurements for assessing the membrane integrity took place before and after the experiments.
(§3) The apparent permeability coefficients (Papp) and ER were calculated as Equations (2) and (3): […]
(§4) where dQ/dt is the steady-state flux, A is the membrane surface area, and C0 is the initial drug concentration in the donor compartment. PappBA is the Papp-value measured in BL to AP direction and PappAB is the Papp-value measured in AP to BL direction. It indicated the involvement of an active transport process when the ER-value is above 1.5 (Hubatsch et al., [2007]).

[1] = tested on: ATP (adenosine triphosphate); details: human, Caco-2, ER, Caco-2, 2 μM, + NaN3 10 mM (ATP)
Procedure: as §1, §2, §3, §4

Caco-2 cell monolayers = tested on: Caco-2 cell monolayers
Procedure: as §1, §2, §3, §4

[2] = Caco-2, 2 μM, + Apigenin 0.025 mM (BCRP)
[3] = Caco-2, 2 μM, + Cimetidine 0.05 mM (OATs)
[4] = Caco-2, 2 μM, + ES 0.05 mM (OATPs)
[5] = Caco-2, 2 μM, + Gly-Sar 10 mM (PEPT1)
[6] = Caco-2, 2 μM, + Ko143 0.01 mM (BCRP)
[7] = Caco-2, 2 μM, + MK571 0.05 mM (MRP2)
[8] = Caco-2, 2 μM, + NaN3 10 mM (ATP)
[9] = Caco-2, 2 μM, + Phloretin 0.3 mM (MCTs)
[10] = Caco-2, 2 μM, + Phloridzin 0.5 mM (SGLT1)
[11] = Caco-2, 2 μM, + Probenecid 0.2 mM (MRP2)
[12] = Caco-2, 2 μM, + Quinidine 0.1 mM (MDR1)
[13] = Caco-2, 2 μM, + TEA 5 mM (OCTs/OCTNs)
[14] = Caco-2, 2 μM, + Verapamil 0.1 mM (MDR1)
[15] = Caco-2, 2 μM, Control (no inhibitor or substrate)
[16] = Caco-2, 2 μM, Control (pH 7.4, 37°C, without EDTA)

In the case of `COc1ccc2c3c([nH]c2c1)C(C)=NCC3` [Harmaline], the efflux ratio (MDR1) is reported as 0.94, the efflux ratio [1] is reported as 1.15 and the “PappAB at pH 7.4 relative to pH 5.5” value (Caco-2 cell monolayers; Caco-2, 2 μM) is reported as 3.65 folds. The PappAB (Caco-2 cell monolayers; Caco-2, 2 μM, 4°C) was 7.59 ± 0.33^*** 1 × 10^−6 cm/s, the PappAB (Caco-2 cell monolayers; Caco-2, 2 μM, 4°C, listed as harmaline) was 7.59 ± 0.33 1 × 10^−6 cm/s and the Modulatory effect (Caco-2 cell monolayers; [2]) was “−”. The PappAB (Caco-2 cell monolayers; [2]) was 27.85 ± 2.09 1 × 10^−6 cm/s, the PappBA (Caco-2 cell monolayers; [2]) was 26.04 ± 1.43 1 × 10^−6 cm/s and the Modulatory effect (Caco-2 cell monolayers; [3]) was “−”. The PappBA (Caco-2 cell monolayers; [3]) was 26.16 ± 1.79 1 × 10^−6 cm/s, the Modulatory effect (Caco-2 cell monolayers; [4]) was “+” and the PappAB (Caco-2 cell monolayers; [4]) was 24.33 ± 0.49 1 × 10^−6 cm/s. For the same molecule, the PappBA (Caco-2 cell monolayers; [4]) was 26.41 ± 0.94 1 × 10^−6 cm/s, the Modulatory effect (Caco-2 cell monolayers; [5]) was “−” and the PappAB (Caco-2 cell monolayers; [5]) was 27.73 ± 0.95 1 × 10^−6 cm/s. The PappBA (Caco-2 cell monolayers; [5]) was 26.31 ± 1.18 1 × 10^−6 cm/s, the Modulatory effect (Caco-2 cell monolayers; [6]) was “−” and the PappBA (Caco-2 cell monolayers; [6]) was 26.15 ± 0.48 1 × 10^−6 cm/s. The Modulatory effect (Caco-2 cell monolayers; [7]) was “−”, the PappAB (Caco-2 cell monolayers; [7]) was 27.90 ± 1.31 1 × 10^−6 cm/s and the PappBA (Caco-2 cell monolayers; [7]) was 25.82 ± 0.71 1 × 10^−6 cm/s. For the same molecule, the Modulatory effect (Caco-2 cell monolayers; [8]) was “+”, the PappAB (Caco-2 cell monolayers; [8]) was 22.75 ± 2.68^* 1 × 10^−6 cm/s and the PappBA (Caco-2 cell monolayers; [8]) was 26.18 ± 1.02 1 × 10^−6 cm/s. The Modulatory effect (Caco-2 cell monolayers; [9]) was “−”, the PappAB (Caco-2 cell monolayers; [9]) was 27.77 ± 2.14 1 × 10^−6 cm/s and the PappBA (Caco-2 cell monolayers; [9]) was 26.25 ± 0.91 1 × 10^−6 cm/s. For the same molecule, the Modulatory effect (Caco-2 cell monolayers; [10]) was “−”, the PappAB (Caco-2 cell monolayers; [10]) was 27.57 ± 2.40 1 × 10^−6 cm/s and the PappBA (Caco-2 cell monolayers; [10]) was 26.07 ± 1.60 1 × 10^−6 cm/s. The Modulatory effect (Caco-2 cell monolayers; [11]) was “−”, the PappAB (Caco-2 cell monolayers; [11]) was 27.22 ± 1.04 1 × 10^−6 cm/s and the PappBA (Caco-2 cell monolayers; [11]) was 26.10 ± 1.02 1 × 10^−6 cm/s. For the same molecule, the Modulatory effect (Caco-2 cell monolayers; [12]) was “−”, the PappAB (Caco-2 cell monolayers; [12]) was 27.54 ± 1.35 1 × 10^−6 cm/s and the PappBA (Caco-2 cell monolayers; [12]) was 26.44 ± 1.47 1 × 10^−6 cm/s. The Modulatory effect (Caco-2 cell monolayers; Caco-2, 2 μM, + Sodium vanadate 0.05 mM (Na^+)) was “+”, the Modulatory effect (Caco-2 cell monolayers; [13]) was “+” and the PappBA (Caco-2 cell monolayers; [13]) was 26.75 ± 1.58 1 × 10^−6 cm/s. For the same molecule, the Modulatory effect (Caco-2 cell monolayers; [14]) was “−”, the PappAB (Caco-2 cell monolayers; [14]) was 27.32 ± 1.33 1 × 10^−6 cm/s and the PappBA (Caco-2 cell monolayers; [14]) was 25.68 ± 1.55 1 × 10^−6 cm/s. The PappAB (Caco-2 cell monolayers; [15]) was 27.48 ± 0.18 1 × 10^−6 cm/s, the PappBA (Caco-2 cell monolayers; [15]) was 26.19 ± 4.02 1 × 10^−6 cm/s and the PappAB (Caco-2 cell monolayers; [16]) was 27.72 ± 1.06 1 × 10^−6 cm/s. The PappBA (Caco-2 cell monolayers; [16]) was 26.42 ± 0.49 1 × 10^−6 cm/s, the PappAB (Caco-2 cell monolayers; Caco-2, 2 μM, with EDTA 5 mM) was 35.23 ± 2.68^* 1 × 10^−6 cm/s and the PappBA (Caco-2 cell monolayers; Caco-2, 2 μM, with EDTA 5 mM) was 39.57 ± 2.10^* 1 × 10^−6 cm/s. For the same molecule, the PappAB (Caco-2 cell monolayers; Caco-2, initial concentration 2 μM) was 27.72 ± 1.06 1 × 10^−6 cm/s and the “ER-values at the tested concentrations” value (Caco-2 cell monolayers; Caco-2 and MDCK, 1, 2, and 5 μM) was < 1.5.
